Reference: patent publication US20250213550A1, “COMPOUNDS AND METHODS FOR TREATING INFLAMMATORY BOWEL DISEASE” (Gilead Sciences, Inc., priority 2023, published 2025)
Like-named read-outs stand apart in the source and are kept apart here.

System: LPS-stimulated pERK in monocytes (TPL2 pathway)
Assay: Ex vivo LPS-stimulated pERK in monocytes of whole blood after Compound 1 dosing (flow cytometry)
Design: species or system human
Conditions: for inhibition at 300 mg / inhibition at 600 mg / inhibition at 900 mg / inhibition at 75 mg: Homo sapiens, Monocyte; for inhibition at 75 mg: 75 mg QD multiple dose
Method: For Cohorts 1-4, whole blood PD sampling occurred relative to the dose of Compound 1 at the following time points: • Day 1: 0 pre-dose (≤5 min prior to dosing), 1, 2, 3, 4, 8, 12, 24 and 36 hours post-dose
For Cohorts 5-9, whole blood PD sampling occurred relative to the dose of Compound 1 at the following time points: • Day 1: 0 pre-dose (≤5 min prior to dosing), 1, 2, 3, 4, 8, 12, and 24 hours post-dose • Day 10: 0 pre-dose (≤5 min prior to dosing), 1, 2, 3, 4, 8, 12, 24, 36, 48, 72, 96, and 120 hours post-dose
Whole blood PD Samples were stimulated ex vivo with lipopolysaccharide (LPS) or phosphate buffered saline (PBS), and the phosphorylation of extracellular signal-related kinase (pERK) was detected in monocytes by flow cytometry.
Pharmacodynamic changes after single and multiple doses of Compound 1 were also investigated by monitoring, in whole blood samples, stimulated with either lipopolysaccharide (LPS) or PBS for 15 minutes at 37° C. Changes to the phosphorylation of extracellular signal-regulated kinases (pERK) was measured in monocytes by flow cytometry, defined as CD15−CD14+.
Pharmacodynamic parameters for Compound 1 were calculated as percent change in pERK signal relative to Day 1 pre-dose (baseline) for all evaluable participants.
Multiple Ascending Doses: Pharmacodynamic parameters after multiple doses of Compound 1 were also calculated as percent change in pERK signal relative to Day 1 pre-dose (baseline) for all evaluable participants.

## Cn1ccc2c([C@@H](c3cn(C45CC(C4)C5)nn3)N(C(=O)OCOP(=O)(O)O)c3cc(Cl)c4ncc(C#N)c(NCC(C)(C)C)c4c3)cccc2c1=O [Compound 1]
300 mg QD multiple dose, Day 1 1 hour, mean (SD), read-out: pERK Signal, % Inhibition
  inhibition at 300 mg: 89.1%
300 mg QD multiple dose, Day 1 1 hour, median, read-out: pERK Signal, % Inhibition
  inhibition at 300 mg: 93.8%
300 mg QD multiple dose, Day 1 3 hours, mean (SD), read-out: pERK Signal, % Inhibition
  inhibition at 300 mg: 95.7%
300 mg QD multiple dose, Day 1 3 hours, median, read-out: pERK Signal, % Inhibition
  inhibition at 300 mg: 97.1%
300 mg QD multiple dose, Day 1 12 hours, mean (SD), read-out: pERK Signal, % Inhibition
  inhibition at 300 mg: 75.3%
300 mg QD multiple dose, Day 1 12 hours, median, read-out: pERK Signal, % Inhibition
  inhibition at 300 mg: 74.3%
300 mg QD multiple dose, Day 10 1 hour, mean (SD), read-out: pERK Signal, % Inhibition
  inhibition at 300 mg: 96.8%
300 mg QD multiple dose, Day 10 1 hour, median, read-out: pERK Signal, % Inhibition
  inhibition at 300 mg: 97.1%
300 mg QD multiple dose, Day 10 3 hours, mean (SD), read-out: pERK Signal, % Inhibition
  inhibition at 300 mg: 98.3%
300 mg QD multiple dose, Day 10 3 hours, median, read-out: pERK Signal, % Inhibition
  inhibition at 300 mg: 98.7%
300 mg QD multiple dose, Day 10 12 hours, mean (SD), read-out: pERK Signal, % Inhibition
  inhibition at 300 mg: 94%
300 mg QD multiple dose, Day 10 12 hours, median, read-out: pERK Signal, % Inhibition
  inhibition at 300 mg: 95.7%
300 mg QD multiple dose, Day 10 24 hours, mean (SD), read-out: pERK Signal, % Inhibition
  inhibition at 300 mg: 92.2%
300 mg QD multiple dose, Day 10 24 hours, median, read-out: pERK Signal, % Inhibition
  inhibition at 300 mg: 91.6%
600 mg BID multiple dose, Day 1 1 hour, mean (SD), read-out: pERK Signal, % Inhibition
  inhibition at 600 mg: 79.9%
600 mg BID multiple dose, Day 1 1 hour, median, read-out: pERK Signal, % Inhibition
  inhibition at 600 mg: 74.3%
600 mg BID multiple dose, Day 1 3 hours, mean (SD), read-out: pERK Signal, % Inhibition
  inhibition at 600 mg: 99.9%
600 mg BID multiple dose, Day 1 3 hours, median, read-out: pERK Signal, % Inhibition
  inhibition at 600 mg: 99.9%
600 mg BID multiple dose, Day 1 12 hours, mean (SD), read-out: pERK Signal, % Inhibition
  inhibition at 600 mg: 84.2%
600 mg BID multiple dose, Day 1 12 hours, median, read-out: pERK Signal, % Inhibition
  inhibition at 600 mg: 91%
600 mg BID multiple dose, Day 10 1 hour, mean (SD), read-out: pERK Signal, % Inhibition
  inhibition at 600 mg: 99.5%
600 mg BID multiple dose, Day 10 1 hour, median, read-out: pERK Signal, % Inhibition
  inhibition at 600 mg: 100%
600 mg BID multiple dose, Day 10 3 hours, mean (SD), read-out: pERK Signal, % Inhibition
  inhibition at 600 mg: 100%
600 mg BID multiple dose, Day 10 3 hours, median, read-out: pERK Signal, % Inhibition
  inhibition at 600 mg: 100%
600 mg BID multiple dose, Day 10 12 hours, mean (SD), read-out: pERK Signal, % Inhibition
  inhibition at 600 mg: 100%
600 mg BID multiple dose, Day 10 12 hours, median, read-out: pERK Signal, % Inhibition
  inhibition at 600 mg: 100%
600 mg BID multiple dose, Day 10 24 hours, mean (SD), read-out: pERK Signal, % Inhibition
  inhibition at 600 mg: 103%
600 mg BID multiple dose, Day 10 24 hours, median, read-out: pERK Signal, % Inhibition
  inhibition at 600 mg: 102%
900 mg QD multiple dose, Day 1 1 hour, mean (SD), read-out: pERK Signal, % Inhibition
  inhibition at 900 mg: 88.9%
900 mg QD multiple dose, Day 1 1 hour, median, read-out: pERK Signal, % Inhibition
  inhibition at 900 mg: 95%
900 mg QD multiple dose, Day 1 3 hours, mean (SD), read-out: pERK Signal, % Inhibition
  inhibition at 900 mg: 99.8%
900 mg QD multiple dose, Day 1 3 hours, median, read-out: pERK Signal, % Inhibition
  inhibition at 900 mg: 99.6%
900 mg QD multiple dose, Day 1 12 hours, mean (SD), read-out: pERK Signal, % Inhibition
  inhibition at 900 mg: 95.2%
900 mg QD multiple dose, Day 1 12 hours, median, read-out: pERK Signal, % Inhibition
  inhibition at 900 mg: 95.3%
900 mg QD multiple dose, Day 10 1 hour, mean (N=1), read-out: pERK Signal, % Inhibition
  inhibition at 900 mg: 99.4%
900 mg QD multiple dose, Day 10 1 hour, median (N=1), read-out: pERK Signal, % Inhibition
  inhibition at 900 mg: 99.4%
900 mg QD multiple dose, Day 10 3 hours, mean (N=1), read-out: pERK Signal, % Inhibition
  inhibition at 900 mg: 99.6%
900 mg QD multiple dose, Day 10 3 hours, median (N=1), read-out: pERK Signal, % Inhibition
  inhibition at 900 mg: 99.6%
900 mg QD multiple dose, Day 10 12 hours, mean (N=1), read-out: pERK Signal, % Inhibition
  inhibition at 900 mg: 96.7%
900 mg QD multiple dose, Day 10 12 hours, median (N=1), read-out: pERK Signal, % Inhibition
  inhibition at 900 mg: 96.7%
900 mg QD multiple dose, Day 10 24 hours, mean (SD), read-out: pERK Signal, % Inhibition
  inhibition at 900 mg: 98.3%
900 mg QD multiple dose, Day 10 24 hours, median, read-out: pERK Signal, % Inhibition
  inhibition at 900 mg: 98.5%
24 h, Day 1 24 hours, mean (SD), read-out: pERK Signal, % Inhibition
  inhibition at 75 mg: 1%
24 h, Day 1 24 hours, median, read-out: pERK Signal, % Inhibition
  inhibition at 75 mg: 4.4%
24 h, 300 mg QD multiple dose, Day 1 24 hours, mean (SD), read-out: pERK Signal, % Inhibition
  inhibition at 300 mg: 72.9%
24 h, 300 mg QD multiple dose, Day 1 24 hours, median, read-out: pERK Signal, % Inhibition
  inhibition at 300 mg: 71.5%
24 h, 300 mg QD, steady state, 24 hours post-last dose, read-out: inhibition of LPS-stimulated pERK
  inhibition at 300 mg: > 90%
24 h, 600 mg BID multiple dose, Day 1 24 hours, mean (SD), read-out: pERK Signal, % Inhibition
  inhibition at 600 mg: 97.6%
24 h, 600 mg BID multiple dose, Day 1 24 hours, median, read-out: pERK Signal, % Inhibition
  inhibition at 600 mg: 99.5%
24 h, 600 mg BID, steady state, 24 hours post-last dose, read-out: inhibition of LPS-stimulated pERK
  inhibition at 600 mg: > 90%
24 h, 900 mg QD multiple dose, Day 1 24 hours, mean (SD), read-out: pERK Signal, % Inhibition
  inhibition at 900 mg: 90.2%
24 h, 900 mg QD multiple dose, Day 1 24 hours, median, read-out: pERK Signal, % Inhibition
  inhibition at 900 mg: 89.9%
24 h, 900 mg QD, steady state, 24 hours post-last dose, read-out: inhibition of LPS-stimulated pERK
  inhibition at 900 mg: > 90%
240 h, Day 10 predose, mean (SD), read-out: pERK Signal, % Inhibition
  inhibition at 75 mg: 24.4%
240 h, Day 10 predose, median, read-out: pERK Signal, % Inhibition
  inhibition at 75 mg: 41.3%
240 h, 300 mg QD multiple dose, Day 10 predose, mean (SD), read-out: pERK Signal, % Inhibition
  inhibition at 300 mg: 93.5%
240 h, 300 mg QD multiple dose, Day 10 predose, median, read-out: pERK Signal, % Inhibition
  inhibition at 300 mg: 93.4%
240 h, 600 mg BID multiple dose, Day 10 predose, mean (SD), read-out: pERK Signal, % Inhibition
  inhibition at 600 mg: 98.6%
240 h, 600 mg BID multiple dose, Day 10 predose, median, read-out: pERK Signal, % Inhibition
  inhibition at 600 mg: 100%
240 h, 900 mg QD multiple dose, Day 10 predose, mean (N=1), read-out: pERK Signal, % Inhibition
  inhibition at 900 mg: 97.1%
240 h, 900 mg QD multiple dose, Day 10 predose, median (N=1), read-out: pERK Signal, % Inhibition
  inhibition at 900 mg: 97.1%
SAD and MAD cohorts
  inhibition of LPS-stimulated pERK in ex vivo whole blood samples: dose-dependent and reversible inhibition
Single oral doses, fasted, all dosages, post-dose
  time of peak inhibition of LPS-stimulated pERK: 3 hours
